Experiment: Fragrance screen for chemical compatibility with a PAA solution
Type: physicochemical
Description: A number of fragrances were tested with a PAA solution to screen for chemical compatibility. […] Additionally, “Blackberry Sage Tea” fragrance in combination with the vinegar-like order from the PAA in the sample was not appealing to volunteers who agreed to sample the sample lotion formulation.

Time within which the fragrance degrades PAA, 3 to 5 days:
CC(=O)OCCC(C)CCC=C(C)C (stereo not drawn) [citronellyl acetate]
CC(=O)OC/C=C(/C)CCC=C(C)C [neryl acetate]
CC/C=C\CCO [cis-3-hexen-1-ol]

— patent US9044403B2, “Sporicidal hand sanitizing lotion” (Medivators Inc., priority 2008, dated 2015)
